Patent US7612087B2, “Heterocyclic compounds as inhibitors of beta-lactamases” (Novexel, priority 2002, dated 2009)

Key:
β-lactamase P99 = target: T1, β-lactamase P99 (Enterobacter cloacae, UniProt P05364); assay: biochemical; conditions: 100 μM Nitrocefin, 50 mM sodium phosphate buffer pH7.0, 37° C.; read-out: IC50 nM/P99
T1 construct: The β-lactamases are isolated from bacterial strains which are resistant to penicillins and cephalosporins; endogenous in cells; host or cells: Enterobacter cloacae 293HT6 (natural producer; French-press lysate, 100,000 g supernatant)
T1 sequence (P05364 21-381): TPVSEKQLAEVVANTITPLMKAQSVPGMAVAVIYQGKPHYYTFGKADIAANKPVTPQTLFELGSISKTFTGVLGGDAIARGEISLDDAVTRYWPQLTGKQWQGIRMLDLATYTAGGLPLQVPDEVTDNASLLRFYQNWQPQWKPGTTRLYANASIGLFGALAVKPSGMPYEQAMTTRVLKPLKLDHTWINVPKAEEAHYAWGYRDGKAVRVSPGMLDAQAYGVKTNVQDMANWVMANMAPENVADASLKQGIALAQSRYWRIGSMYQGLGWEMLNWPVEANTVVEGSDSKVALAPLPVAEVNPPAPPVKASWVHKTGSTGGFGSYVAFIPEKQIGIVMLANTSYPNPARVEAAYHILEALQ
Summary of the method: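 P99 β-lactamase, taken from the soluble fraction of an Enterobacter cloacae 293HT6 lysate, was assayed at 37° C. in 50 mM sodium phosphate buffer pH7.0 with 100 μM Nitrocefin as the chromogenic substrate. Hydrolysis was followed kinetically at 485 nm at initial speed, with and without a 5 mn enzyme–inhibitor preincubation. Inhibitors were tested at 6 or 8 concentrations in duplicate, and IC50 was fitted with GraFit.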

[1] = system: P. aeruginosa 391HT8 (PSE); assay: MIC, micro-dilution in liquid medium, β-lactamine with product at 5 mg/l; assay type: cell-based; conditions: compound at 5 mg/l, 24 hours at 37° C.; for MIC of Piperacillin in combination with the compound: Trial 12, 391HT8 PSE; for MIC of Cefotaxime in combination with the compound: Trial 12, 391HT8 P. aeruginosa PSE
Summary of the method: (§1)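 Broth micro-dilution MIC of a β-lactamine series, each dilution containing a fixed 5 mg/l of test product. Inoculated plates incubated 24 h at 37 °C. MIC in mg/l taken as lowest concentration without visible bacterial growth.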

E. coli 250SJ1 (Tem7) = assay: as above; assay type: cell-based; conditions: compound at 5 mg/l, 24 hours at 37° C.; for MIC of Piperacillin in combination with the compound: Trial 5, 250SJ1 Tem7; for MIC of Cefotaxime in combination with the compound: Trial 5, 250SJ1 E. coli Tem7
Summary of the method: as §1

Serratia 301HT6 = assay: as above; assay type: cell-based; conditions: compound at 5 mg/l; Trial 10, 301HT6 Serratia; 24 hours at 37° C.
Summary of the method: as §1

[2] = system: P. aeruginosa 391HT7 (PSE); assay: as above; assay type: cell-based; conditions: compound at 5 mg/l, 24 hours at 37° C.; for MIC of Piperacillin in combination with the compound: Trial 11, 391HT7 PSE; for MIC of Cefotaxime in combination with the compound: Trial 11, 391HT7 P. aeruginosa PSE
Summary of the method: as §1

E. coli 250HT26 (SHV1) = assay: as above; assay type: cell-based; conditions: compound at 5 mg/l, 24 hours at 37° C.; for MIC of Piperacillin in combination with the compound: Trial 6, 250HT26 SHV1; for MIC of Cefotaxime in combination with the compound: Trial 6, 250HT26 E. coli SHV1
Summary of the method: as §1

E. coli 250HT21 (Tem1) = assay: as above; assay type: cell-based; conditions: compound at 5 mg/l, 24 hours at 37° C.; for MIC of Piperacillin in combination with the compound: Trial 2, 250HT21 Tem1; for MIC of Cefotaxime in combination with the compound: Trial 2, 250HT21 E. coli Tem1
Summary of the method: as §1

[3] = system: E. cloacae 293HT6 (Class C); assay: as above; assay type: cell-based; conditions: compound at 5 mg/l, 24 hours at 37° C.; for MIC of Piperacillin in combination with the compound: Trial 9, 293HT6 Class; for MIC of Cefotaxime in combination with the compound: Trial 9, 293HT6 E. cloacae Class C
Summary of the method: as §1

E. coli 250BE1 (SHV4) = assay: as above; assay type: cell-based; conditions: compound at 5 mg/l, 24 hours at 37° C.; for MIC of Piperacillin in combination with the compound: Trial 7, 250BE1 SHV4; for MIC of Cefotaxime in combination with the compound: Trial 7, 250BE1 E. coli SHV4
Summary of the method: as §1

[4] = system: S. aureus 011GO66 (PeniR); assay: as above; assay type: cell-based; conditions: compound at 5 mg/l, 24 hours at 37° C.; for MIC of Piperacillin in combination with the compound: Trial 1, 011GO66 peniR; for MIC of Cefotaxime in combination with the compound: Trial 1, 011GO66 S. aureus PeniR
Summary of the method: as §1

E. coli 250HT22 (Tem2) = assay: as above; assay type: cell-based; conditions: compound at 5 mg/l, 24 hours at 37° C.; for MIC of Piperacillin in combination with the compound: Trial 3, 250HT22 Tem2; for MIC of Cefotaxime in combination with the compound: Trial 3, 250HT22 E. coli Tem2
Summary of the method: as §1

[5] = system: E. coli 250HT23 (Class D); assay: as above; assay type: cell-based; conditions: compound at 5 mg/l, 24 hours at 37° C.; for MIC of Piperacillin in combination with the compound: Trial 8, 250HT23 Class D; for MIC of Cefotaxime in combination with the compound: Trial 8, 250HT23 E. coli Class D
Summary of the method: as §1

E. coli 250CF1 (Tem3) = assay: microbe, parasite or virus in culture; assay type: cell-based; conditions: compound at 5 mg/l, 24 hours at 37° C.; for MIC of Piperacillin in combination with the compound: Trial 4, 250CF1 Tem3; for MIC of Cefotaxime in combination with the compound: Trial 4, 250CF1 E. coli Tem3
Summary of the method: as §1

β-lactamase TEM1 = target: T2, β-lactamase TEM1 (Escherichia coli, UniProt P62593); assay: Inhibition of isolated β-lactamase Tem-1 (Nitrocefin hydrolysis); assay type: biochemical, E.coli 250HT21; conditions: 100 μM Nitrocefin, 50 mM sodium phosphate buffer pH7.0, 37° C.
T2 construct: The β-lactamases are isolated from bacterial strains which are resistant to penicillins and cephalosporins; endogenous in cells; host or cells: E. coli 250HT21 (natural producer; French-press lysate, 100,000 g supernatant)
T2 sequence (P62593 24-286 limits assumed): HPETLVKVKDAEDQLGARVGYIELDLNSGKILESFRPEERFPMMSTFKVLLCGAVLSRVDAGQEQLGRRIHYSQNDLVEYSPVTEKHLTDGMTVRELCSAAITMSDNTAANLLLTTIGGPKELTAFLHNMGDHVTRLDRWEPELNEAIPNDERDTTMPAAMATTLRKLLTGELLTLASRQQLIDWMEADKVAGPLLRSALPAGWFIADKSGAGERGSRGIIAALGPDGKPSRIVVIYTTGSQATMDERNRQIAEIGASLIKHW
Summary of the method: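 TEM-1 from soluble extract of E. coli 250HT21, normalized enzyme, 100 μM Nitrocefin in 50 mM sodium phosphate pH 7.0 at 37 °C. Initial-rate hydrolysis read kinetically at 485 nm, with and without 5 min enzyme–inhibitor preincubation. CI50 from 6 or 8 concentrations in duplicate.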

Row | SMILES | IC50 (β-lactamase P99) [nM] | MIC of Piperacillin in combination with the compound [1] [µg/mL] | MIC of Piperacillin in combination with the compound (E. coli 250SJ1 (Tem7)) [µg/mL] | MIC of Piperacillin in combination with the compound (Serratia 301HT6) [µg/mL] | MIC of Piperacillin in combination with the compound [2] [µg/mL] | MIC of Piperacillin in combination with the compound (E. coli 250HT26 (SHV1)) [µg/mL] | MIC of Piperacillin in combination with the compound (E. coli 250HT21 (Tem1)) [µg/mL] | MIC of Piperacillin in combination with the compound [3] [µg/mL] | MIC of Piperacillin in combination with the compound (E. coli 250BE1 (SHV4)) [µg/mL] | MIC of Piperacillin in combination with the compound [4] [µg/mL] | MIC of Piperacillin in combination with the compound (E. coli 250HT22 (Tem2)) [µg/mL] | MIC of Piperacillin in combination with the compound [5] [µg/mL] | MIC of Piperacillin in combination with the compound (E. coli 250CF1 (Tem3)) [µg/mL] | IC50 (β-lactamase TEM1) [nM] | MIC of Cefotaxime in combination with the compound [1] [µg/mL] | MIC of Cefotaxime in combination with the compound (E. coli 250SJ1 (Tem7)) | MIC of Cefotaxime in combination with the compound (Serratia 301HT6) | MIC of Cefotaxime in combination with the compound [2] [µg/mL] | MIC of Cefotaxime in combination with the compound (E. coli 250HT26 (SHV1)) | MIC of Cefotaxime in combination with the compound (E. coli 250HT21 (Tem1)) | other results
1 | NC(=O)C(NC(=O)[C@H]1CC[C@@H]2CN1C(=O)N2OS(=O)(=O)[O-])c1ccccc1.[Na+] (relative stereo) [Example 47, sodium salt of trans-N-(2-amino-2-oxo-1-phenylethyl)-7-oxo-6-(sulphooxy)-1,6-diazabicyclo[3.2.1]octane-2-carboxamide] | 43 | >40 | 40 | 1.2 | >40 | 2.5 | 2.5 | >40 | 5 | 0.6 | 20 | 10 | 5 | 18 |  |  |  |  |  |  | 
2 | NC(=O)c1cccc(NC(=O)[C@H]2CC[C@@H]3CN2C(=O)N3OS(=O)(=O)[O-])c1.[Na+] (relative stereo) [Example 39, sodium salt of trans-N-[3-(aminocarbonyl)phenyl]-7-oxo-6-(sulphooxy)-1,6-diazabicyclo[3.2.1]octane-2-carboxamide] | 50 | >40 | >40 | 0.6 | >40 | 40 | 2.5 | 20 | 20 | 1.2 | 20 | 10 | 40 | 31 | 20 | <=0.04 μg/ml | <=0.04 μg/ml | 20 | <=0.04 μg/ml | <=0.04 μg/ml | MIC of Cefotaxime in combination with the compound [3]: 1.2 µg/mL; MIC of Cefotaxime in combination with the compound (E. coli 250BE1 (SHV4)): 0.08 µg/mL; MIC of Cefotaxime in combination with the compound [4]: 2.5 µg/mL; MIC of Cefotaxime in combination with the compound (E. coli 250HT22 (Tem2)): <=0.04 μg/ml; MIC of Cefotaxime in combination with the compound [5]: <=0.04 μg/ml; MIC of Cefotaxime in combination with the compound (E. coli 250CF1 (Tem3)): 0.08 µg/mL
3 | CN(C)c1cccc(NC(=O)[C@H]2CC[C@@H]3CN2C(=O)N3OS(=O)(=O)[O-])c1.[Na+] (relative stereo) [Example 41, sodium salt of trans-N-[3-(dimethylamino)phenyl]-7-oxo-6-(sulphooxy)-1,6-diazabicyclo[3.2.1]octane-2-carboxamide] | 120 | >40 | >40 | 1.2 | >40 | >40 | 40 | >40 | >40 | 1.2 | >40 | 40 | >40 | 14 | >40 | 0.6 µg/mL | 0.08 µg/mL | >40 | <=0.04 μg/ml | <=0.04 μg/ml | MIC of Cefotaxime in combination with the compound [3]: >40 µg/mL; MIC of Cefotaxime in combination with the compound (E. coli 250BE1 (SHV4)): >40 µg/mL; MIC of Cefotaxime in combination with the compound [4]: 2.5 µg/mL; MIC of Cefotaxime in combination with the compound (E. coli 250HT22 (Tem2)): <=0.04 μg/ml; MIC of Cefotaxime in combination with the compound [5]: 0.08 µg/mL; MIC of Cefotaxime in combination with the compound (E. coli 250CF1 (Tem3)): 2.5 µg/mL
4 | O=C(NCc1ccccn1)[C@H]1CC[C@@H]2CN1C(=O)N2OS(=O)(=O)[O-].[Na+] (relative stereo) [Example 35, sodium salt of trans-7-oxo-N-(2-pyridinylmethyl)-6-(sulphooxy)-1,6-diazabicyclo[3.2.1]octane-2-carboxamide] | 56 | >40 | 5 | 1.2 | >40 | 5 | 2.5 | 5 | 20 | 1.2 | 20 | 10 | 10 | 53 | 20 | <=0.04 μg/ml | <=0.04 μg/ml | 20 | <=0.04 μg/ml | <=0.04 μg/ml | MIC of Cefotaxime in combination with the compound [3]: 0.6 µg/mL; MIC of Cefotaxime in combination with the compound (E. coli 250BE1 (SHV4)): 0.08 µg/mL; MIC of Cefotaxime in combination with the compound [4]: 1.2 µg/mL; MIC of Cefotaxime in combination with the compound (E. coli 250HT22 (Tem2)): <=0.04 μg/ml; MIC of Cefotaxime in combination with the compound [5]: <=0.04 μg/ml; MIC of Cefotaxime in combination with the compound (E. coli 250CF1 (Tem3)): 0.15 µg/mL
